Assay in all cases: biochemical
For assay [1], the target named is T1, dihydrofolate reductase (DHFR; wt-DHFR and midW mutants) (Escherichia coli, UniProt P0ABQ4, W133F/W22F/W47F/W74F).
T1 construct: gene folA
The text has this:
(§1) isothermal titration calorimetry on dihydrofolate reductase (DHFR; wt-DHFR and midW mutants)

The target of assay [2] is T2, dihydrofolate reductase (DHFR; wt-DHFR and midW mutants) (Escherichia coli, UniProt P0ABQ4, W133F/W22F/W30F/W74F).
T2 construct: gene folA
Text: as §1

The target in assay [3] is T3, dihydrofolate reductase (DHFR; wt-DHFR and midW mutants) (Escherichia coli, UniProt P0ABQ4, W133F/W22F/W30F/W47F).
T3 construct: gene folA
Text: as §1

The target of assay [4] is T4, dihydrofolate reductase (DHFR; wt-DHFR and midW mutants) (Escherichia coli, UniProt P0ABQ4, W22F/W30F/W47F/W74F).
T4 construct: gene folA
Text: as §1

The target of assay [5] is T5, dihydrofolate reductase (DHFR; wt-DHFR and midW mutants) (Escherichia coli, UniProt P0ABQ4, W133F/W30F/W47F/W74F).
T5 construct: gene folA
Text: as §1

The Kd is a measure of binding affinity in units of concentration. Read a low Kd as tighter binding. For `Nc1nc2ncc(CNc3ccc(C(=O)N[C@@H](CCC(=O)O)C(=O)O)cc3)nc2c(=O)[nH]1` [folate], the Kd stood at 4.5 µM in assay [1]; 12 µM in assay [2]; 8.4 µM in assay [3]; 9.5 µM in assay [4]; 3.7 µM in assay [5].

For the origin of these results see PMC7503464 (Molecules, 2020).
